Results published in ChEMBL document CHEMBL1201862, “PubChem BioAssay data set” (2004).
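Compound exposure: 48 hours, 5 concentrations, 96-well plates. Abbreviation: GI50, concentration required for 50% inhibition of growth.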 Calls of active or inactive are those of the source. No stated cut-off is given here; in the data, active = GI50 up to about 1.1 µM and inactive = higher.

Legend:
Assay in all cases: inhibition of tumour cell growth, NCI panel, 48 h
[1] = tested on: 786-0
[2] = tested on: HOP-92
[3] = tested on: A549
[4] = tested on: SW-620
[5] = tested on: DU-145
[6] = tested on: A498
[7] = tested on: NCI-H460
[8] = tested on: MOLT-4
[9] = tested on: PC-3
[10] = tested on: U-251
[11] = tested on: OVCAR-8
[12] = tested on: NCI-H226
[13] = tested on: Hs-578T
[14] = tested on: ACHN
[15] = tested on: BT-549
[16] = tested on: SK-MEL-2
[17] = tested on: T47D
[18] = tested on: MDA-MB-231
[19] = tested on: RPMI-8226
[20] = tested on: SK-MEL-28

Measured: GI50

O=c1cc(-c2ccc(O)c(O)c2)oc2cc(O[C@H]3O[C@H](CO)[C@@H](O)[C@H](O)[C@H]3O)cc(O)c12
inactive: [1] > 100 µM | [2] > 100 µM | [3] 79.8 µM | [4] > 100 µM | [5] > 100 µM | [6] 78.2 µM | [7] 34.8 µM | [8] 21.4 µM | [9] 70.6 µM | [10] > 100 µM | [11] > 100 µM | [12] > 100 µM | [13] 29.3 µM | [14] 65.5 µM | [15] > 100 µM | [16] 99.8 µM | [17] 89.1 µM | [18] > 100 µM | [19] 73.5 µM | [20] 59.3 µM

CN(C)Cc1cc(O)c(O)c(CN(C)C)c1
inactive: [1] 31.4 µM | [2] > 100 µM | [3] 46.6 µM | [4] 64.3 µM | [5] 35.9 µM | [6] > 100 µM | [7] 21.4 µM | [8] 27.9 µM | [9] 48.8 µM | [10] 36.6 µM | [11] 35.2 µM | [12] 43.3 µM | [13] > 100 µM | [14] 34.5 µM | [15] 54 µM | [16] 37.2 µM | [17] 49.9 µM | [18] > 100 µM | [19] 35.7 µM | [20] 51.9 µM

O=C(Nc1sccc1S(=O)(=O)c1ccccc1)c1ccccc1
inactive: [1] > 100 µM | [2] > 100 µM | [3] > 100 µM | [4] > 84.3 µM | [5] > 100 µM | [6] > 100 µM | [7] > 31.6 µM | [8] > 100 µM | [9] > 100 µM | [10] > 100 µM | [11] > 100 µM | [12] > 100 µM | [13] > 100 µM | [14] > 100 µM | [15] > 100 µM | [16] > 100 µM | [17] > 100 µM | [18] > 36.1 µM | [19] > 100 µM | [20] > 100 µM

CNC1NC(=O)c2ccccc2N1Cc1ccc(F)cc1 (stereo not given)
inactive: [1] > 100 µM | [2] > 100 µM | [3] > 100 µM | [4] > 100 µM | [5] > 100 µM | [6] > 100 µM | [7] > 100 µM | [8] > 100 µM | [9] > 100 µM | [10] > 100 µM | [11] > 100 µM | [12] > 100 µM | [13] > 100 µM | [14] > 100 µM | [15] > 100 µM | [16] > 100 µM | [17] > 100 µM | [18] > 100 µM | [19] > 100 µM | [20] > 100 µM

O=[N+]([O-])/C(Cl)=C(/C(Cl)=C(Cl)Cl)N1CCOCC1
inactive: [1] 2.92 µM | [2] 2.51 µM | [3] 5.73 µM | [4] 2.69 µM | [5] 13.7 µM | [6] 3.04 µM | [7] 4.33 µM | [8] 2.58 µM | [9] 6.01 µM | [10] 10.7 µM | [11] 2.56 µM | [12] 16.4 µM | [13] 3.8 µM | [14] 6.01 µM | [15] 2.46 µM | [16] 2.12 µM | [17] 2.94 µM | [18] 3.86 µM | [19] 2.56 µM | [20] 11 µM

COC(=O)c1cc(C)ccc1CC(Cc1ccc(C)cc1)C(=O)OC (stereo not given)
inactive: [1] 25.7 µM | [2] 8.95 µM | [3] 12.9 µM | [4] 23.5 µM | [5] > 33 µM | [6] 72.6 µM | [7] 40.4 µM | [8] 5.01 µM | [9] 37.8 µM | [10] 42.1 µM | [11] > 66.8 µM | [12] > 47.4 µM | [13] 21.2 µM | [14] > 100 µM | [15] > 100 µM | [16] 25.1 µM | [17] 30.8 µM | [18] 31.9 µM | [19] 5.77 µM | [20] 67.1 µM

CC1=CC(C2/C(=N/O)C=C(C)CC2(C)C)C(O)C(C)(C)C1 (stereo not given)
inactive: [1] 17.4 µM | [2] 14.1 µM | [3] 15.5 µM | [4] 15.7 µM | [5] 15 µM | [6] 18 µM | [7] 21.3 µM | [8] 13.5 µM | [9] 16.1 µM | [10] 15.7 µM | [11] 17.5 µM | [12] 15.8 µM | [13] 31.8 µM | [14] 18.9 µM | [15] 17.6 µM | [16] 16 µM | [17] 12.8 µM | [18] 17.3 µM | [19] 14 µM | [20] 15.7 µM

COC(=O)[C@@H]1[C@H]2CC[C@]3(C)[C@@H](OC(C)=O)CC[C@H]3[C@@H]2CC[C@H]1C(C)=O
inactive: [1] > 100 µM | [2] > 100 µM | [3] > 100 µM | [4] > 100 µM | [5] > 100 µM | [6] > 100 µM | [7] > 100 µM | [8] > 100 µM | [9] > 100 µM | [10] > 100 µM | [11] > 100 µM | [12] > 100 µM | [13] > 100 µM | [14] > 100 µM | [15] > 100 µM | [16] > 100 µM | [17] > 100 µM | [18] > 100 µM | [19] > 100 µM | [20] > 100 µM

COC(=O)/C(C#N)=C(\Nc1ccccc1)N1CCCCC1
inactive: [1] > 100 µM | [2] > 100 µM | [3] > 100 µM | [4] > 100 µM | [5] > 100 µM | [6] > 100 µM | [7] > 100 µM | [8] > 100 µM | [9] > 100 µM | [10] > 100 µM | [11] > 100 µM | [12] > 100 µM | [13] > 100 µM | [14] > 100 µM | [15] > 100 µM | [16] > 100 µM | [17] > 100 µM | [18] > 100 µM | [19] > 100 µM | [20] > 100 µM

COC1(OC)N=C(N)C2(C#N)C(c3ccccc3)NC3=C(CCC3)C12C#N (stereo not given)
inactive: [1] > 100 µM | [2] > 100 µM | [3] > 100 µM | [4] > 100 µM | [5] > 100 µM | [6] > 100 µM | [7] > 100 µM | [8] > 100 µM | [9] > 100 µM | [10] > 100 µM | [11] > 100 µM | [12] > 100 µM | [13] > 100 µM | [14] > 100 µM | [15] > 100 µM | [16] > 100 µM | [17] > 100 µM | [18] > 100 µM | [19] > 100 µM | [20] > 100 µM

CC(C)CCOC(=O)NC(Nc1ccc(F)cc1)(C(F)(F)F)C(F)(F)F
inactive: [1] > 100 µM | [2] 44.2 µM | [3] 23.1 µM | [4] 19 µM | [5] 7.36 µM | [6] 42.9 µM | [7] 41.3 µM | [8] 19.1 µM | [9] 28.1 µM | [10] 27.3 µM | [11] 51.8 µM | [12] > 100 µM | [13] > 100 µM | [14] 1.66 µM | [15] 9.75 µM | [16] 53.1 µM | [17] 6.22 µM | [18] 7.91 µM | [19] 22.1 µM | [20] > 100 µM

CCOC(=O)C(C)c1nc2cc(F)c(N3CCOCC3)cc2[nH]c1=O (stereo not given)
inactive: [1] > 100 µM | [2] > 100 µM | [3] > 100 µM | [4] > 100 µM | [5] > 100 µM | [6] > 100 µM | [7] 39.1 µM | [8] 85.9 µM | [9] 71.9 µM | [10] > 100 µM | [11] > 100 µM | [12] > 100 µM | [13] > 100 µM | [14] > 100 µM | [15] > 100 µM | [16] > 100 µM | [17] 51.9 µM | [18] > 100 µM | [19] 83.6 µM | [20] > 100 µM

Oc1cc(-c2ccccc2)nc2cc3c(cc12)OCO3
inactive: [1] 9.95 µM | [2] 3.98 µM | [3] 14 µM | [4] 6.15 µM | [5] 79.4 µM | [6] 15.1 µM | [7] 7.87 µM | [8] 15.1 µM | [9] 30.2 µM | [10] 29.2 µM | [11] 14.5 µM | [12] 11.8 µM | [13] 24.5 µM | [14] 15.2 µM | [15] 40.8 µM | [16] 19.5 µM | [17] 42.1 µM | [18] 85.5 µM | [19] 11 µM | [20] 6.75 µM

c1ccc2c(c1)Sc1ccccc1N2CC1CN2CCC1CC2 (stereo not given) [MEQUITAZINE]
inactive: [1] 6.24 µM | [2] 11 µM | [3] 9.71 µM | [4] 3.58 µM | [5] 6.73 µM | [6] 11.7 µM | [7] 3.26 µM | [8] 3.42 µM | [9] 5.35 µM | [10] 4.24 µM | [11] 13.4 µM | [12] 14.5 µM | [13] 8.2 µM | [14] 10.3 µM | [15] 14.5 µM | [16] 3.32 µM | [17] 2.63 µM | [18] 3.8 µM | [19] 2.99 µM | [20] 2 µM
